Experimental findings from US11618767B2, “Carboxy substituted glucocorticoid receptor agonists” (Eli Lilly and Company, priority 2021, dated 2023) are described below.

The target of this assay is T1, GR-LBD (Homo sapiens, UniProt P04150).
T1 construct: purchased Life Technologies A15899
T1 sequence (P04150 524-758 limits assumed): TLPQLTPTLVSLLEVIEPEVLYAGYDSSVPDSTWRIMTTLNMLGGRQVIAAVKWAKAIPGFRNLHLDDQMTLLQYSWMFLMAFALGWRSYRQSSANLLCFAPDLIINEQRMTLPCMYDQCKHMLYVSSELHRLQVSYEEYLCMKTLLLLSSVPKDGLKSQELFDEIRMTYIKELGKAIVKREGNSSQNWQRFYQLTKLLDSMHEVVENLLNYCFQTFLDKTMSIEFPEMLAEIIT
Briefly: hGR CoActivator Recruitment Assay (LanthaScreen TR-Fret GR Coactivator Assay). It counts as biochemical. The following applies: TR-FRET emission ratio 520/490; 10-point serial dilution, top concentration 200 nM; Fluorescein-SRC1-4 coactivator peptide; read-out: relative IC50. How it is done:
hGR CoActivator Recruitment Assay The activity of glucocorticoid compounds was measured using the LanthaScreen TR-Fret GR Coactivator Assay from Life Technologies (A15899). The compounds were acoustically transferred to an assay plate in a 3-fold 10-point serial dilution with a top concentration of 200 nM. Ten microliters of a 2× solution of GR-LBD was added to the compound plate and incubated for 10 min. Then ten microliters of a 2× solution of Fluoresein-SRC1-4 and Tb labelled anti-GST antibody was added to the plate. The plate was incubated in the dark for two hours and then read on an Envision plate reader, with excitation at 340 nm and emission at 520 nm (Fluorescein) and 490 nm (Terbium). The emission ratio of 520/490 was analyzed in Genedata. To obtain percent activity, the data was compared to a negative control of DMSO and positive control of […] dexamethasone.

Structures are written as SMILES.

What is called IC50 is the concentration that gives 50% inhibition. For `C[C@]12C=CC(=O)C=C1CC[C@@H]1[C@@H]2[C@@H](O)C[C@@]2(C)[C@H]1C[C@H]1O[C@H](c3ccc(Cc4ccc(C(=O)O)cc4)cc3F)O[C@]12C(=O)CO` (single isomer, unassigned) [Example 2], the IC50 turned out to be 4.5 nM.
On to `Cc1ccc(OCc2cccc(C(=O)O)c2)c(F)c1[C@H]1O[C@@H]2C[C@H]3[C@@H]4CCC5=CC(=O)C=C[C@]5(C)[C@H]4[C@@H](O)C[C@]3(C)[C@]2(C(=O)CO)O1` [Example 4, 3-((2-Fluoro-3-((6aR,6bS,7S,8aS,8bS,10 S,11aR,12a5,12bS)-7-hydroxy-8b-(2-hydroxyacetyl)-6a, 8a-dimethyl-4-oxo-2,4,6a,6b,7,8,8a, 8b,11a,12,12a,12b-dodecahydro-1H-naphtho[2′,1′:4,5]indeno[1,2-d][1,3]dioxol-10-yl)-4-methylphenoxy)methyl)benzoic Acid], for which the IC50 was under 200 nM.
For the molecule `COc1ccc(OCc2cccc(C(=O)O)c2)c(F)c1[C@H]1O[C@@H]2C[C@H]3[C@@H]4CCC5=CC(=O)C=C[C@]5(C)[C@H]4[C@@H](O)C[C@]3(C)[C@]2(C(=O)CO)O1` [Example 12], the IC50 was under 200 nM.
Consider `C[C@]12C=CC(=O)C=C1CC[C@@H]1[C@@H]2[C@@H](O)C[C@@]2(C)[C@H]1C[C@H]1O[C@@H](c3ccc(Cc4cccc(C(=O)O)c4)cc3F)O[C@]12C(=O)CO` [Example 9], for which the IC50 was under 200 nM.
Turning to `C[C@]12C=CC(=O)C=C1CC[C@@H]1[C@@H]2[C@@H](O)C[C@@]2(C)[C@H]1C[C@H]1O[C@@H](c3ccc(Oc4cccc(C(=O)O)c4)cc3)O[C@]12C(=O)CO` [Example 7], the IC50 is under 200 nM.
For `Cc1ccc(OCc2ccccc2C(=O)O)c(F)c1[C@H]1O[C@@H]2C[C@H]3[C@@H]4CCC5=CC(=O)C=C[C@]5(C)[C@H]4[C@@H](O)C[C@]3(C)[C@]2(C(=O)CO)O1` [Example 15] the value was under 200 nM; for `COc1ccc(OCc2ccccc2C(=O)O)c(F)c1[C@@H]1O[C@@H]2C[C@H]3[C@@H]4CCC5=CC(=O)C=C[C@]5(C)[C@H]4[C@@H](O)C[C@]3(C)[C@]2(C(=O)CO)O1` [Example 13], over 200 nM; for `C[C@]12C=CC(=O)C=C1CC[C@@H]1[C@@H]2[C@@H](O)C[C@@]2(C)[C@H]1C[C@H]1O[C@H](c3ccc(Cc4cccc(C(=O)O)c4)cc3F)O[C@]12C(=O)CO` [Example 10], over 200 nM.
Take `C[C@]12C=CC(=O)C=C1CC[C@@H]1[C@@H]2[C@@H](O)C[C@@]2(C)[C@H]1C[C@H]1O[C@H](c3ccc(Oc4ccc(C(=O)O)cc4)cc3)O[C@]12C(=O)CO` [Example 6]: the IC50 was under 200 nM.
Regarding `Cc1ccc(OCc2cccc(C(=O)O)c2)c(F)c1[C@@H]1O[C@@H]2C[C@H]3[C@@H]4CCC5=CC(=O)C=C[C@]5(C)[C@H]4[C@@H](O)C[C@]3(C)[C@]2(C(=O)CO)O1` [Example 3, 3-((2-Fluoro-3-((6aR,6bS,7S,8aS,8bS,10R,11aR,12aS,12bS)-7-hydroxy-8b-(2-hydroxyacetyl)-6a, 8a-dimethyl-4-oxo-2,4,6a,6b,7,8,8a,8b,11a,12,12a,12b-dodecahydro-1H-naphtho[2′,1′:4,5]indeno[1,2-d][1,3]dioxol-10-yl)-4-methylphenoxy)methyl)benzoic Acid], the IC50 was under 200 nM.
Turning to `C[C@]12C=CC(=O)C=C1CC[C@@H]1[C@@H]2[C@@H](O)C[C@@]2(C)[C@H]1C[C@H]1O[C@@H](c3ccc(Oc4ccc(C(=O)O)cc4)cc3)O[C@]12C(=O)CO` [Example 5], the IC50 is under 200 nM.
With `C[C@]12C=CC(=O)C=C1CC[C@@H]1[C@@H]2[C@@H](O)C[C@@]2(C)[C@H]1C[C@H]1O[C@@H](c3ccc(Cc4ccc(C(=O)O)cc4)cc3F)O[C@]12C(=O)CO` (single isomer, unassigned) [Example 1], the IC50 was 2.14 nM.
For `COc1ccc(OCc2cccc(C(=O)O)c2)c(F)c1[C@@H]1O[C@@H]2C[C@H]3[C@@H]4CCC5=CC(=O)C=C[C@]5(C)[C@H]4[C@@H](O)C[C@]3(C)[C@]2(C(=O)CO)O1` [Example 11] the value was under 200 nM; for `C[C@]12C=CC(=O)C=C1CC[C@@H]1[C@@H]2[C@@H](O)C[C@@]2(C)[C@H]1C[C@H]1O[C@H](c3ccc(Oc4cccc(C(=O)O)c4)cc3)O[C@]12C(=O)CO` [Example 8], under 200 nM.
As for `COc1ccc(OCc2ccccc2C(=O)O)c(F)c1[C@H]1O[C@@H]2C[C@H]3[C@@H]4CCC5=CC(=O)C=C[C@]5(C)[C@H]4[C@@H](O)C[C@]3(C)[C@]2(C(=O)CO)O1` [Example 14], the IC50 is under 200 nM.
